The target in the assay is T1, human chemokine receptor 2 isoform B (Homo sapiens, UniProt P41597).
T1 construct: host or cells: CHOK1-CCR2B-A5 cells (CHO-K1)
T1 sequence (P41597 1-360 isoform P41597-2): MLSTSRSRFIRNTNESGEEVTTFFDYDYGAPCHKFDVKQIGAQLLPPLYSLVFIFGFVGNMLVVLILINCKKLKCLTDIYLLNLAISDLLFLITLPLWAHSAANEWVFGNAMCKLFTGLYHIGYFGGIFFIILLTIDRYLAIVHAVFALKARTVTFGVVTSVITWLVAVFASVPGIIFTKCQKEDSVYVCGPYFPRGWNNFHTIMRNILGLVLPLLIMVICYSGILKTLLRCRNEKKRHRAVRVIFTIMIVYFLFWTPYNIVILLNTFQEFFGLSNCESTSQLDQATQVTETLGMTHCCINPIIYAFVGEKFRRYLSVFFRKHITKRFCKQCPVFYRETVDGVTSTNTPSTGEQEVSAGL
Kind of assay: Calcium mobilization assay (FLIPR, antagonist activity against MCP-1). Particulars: Ca mobilisation assay, CHOK1-CCR2B-A5 cells, inhibition of calcium increase induced by 20 nM MCP-1. The format is cell-based. In a few lines: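 CHOK1 cells stably overexpressing human CCR2B, loaded with 4 μM Fluo-4 for 2 h at 30° C, compounds added and agonist signal read by FLIPR for 80 s. After 20-30 min at 30° C, 20 nM MCP-1 was added and fluorescence read again. IC50 is 50% inhibition of specific calcium increase (max minus basal).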
Background: Calcium assays in cells follow changes in intracellular calcium, usually with a dye or a luminescent sensor.
Broadly, the IC50 is the point on the concentration scale where inhibition reaches its midpoint. Consider `O=C(/C=C/c1ccc(Cl)c(Cl)c1)N1CCC(=O)N(CCC(=O)N2CCC3(CCCO3)CC2)CC1` [Example 86, 1-[(E)-3-(3,4-Dichloro-phenyl)-acryloyl]-4-[3-(1-oxa-8-aza-spiro[4.5]dec-8-yl)-3-oxo-propyl]-[1,4]diazepan-5-one], for which the IC50 worked out at 0.326 µM.
As to `CC1(CO)CCN(C(=O)CCN2CCN(C(=O)/C=C/c3ccc(Cl)c(Cl)c3)CCC2=O)CC1` [Example 87, 1-[(E)-3-(3,4-Dichloro-phenyl)-acryloyl]-4-[3-(4-hydroxymethyl-4-methyl-piperidin-1-yl)-3-oxo-propyl]-[1,4]diazepan-5-one], the IC50 is 0.337 µM.
Consider `COC(=O)NC1CCN(C(=O)CCN2CCN(C(=O)/C=C/c3ccc(Cl)c(Cl)c3)CCC2=O)CC1` [Example 88, [1-(3-{4-[(E)-3-(3,4-Dichloro-phenyl)-acryloyl]-7-oxo-[1,4]diazepan-1-yl}-propionyl)-piperidin-4-yl]-carbamic acid methyl ester], for which the IC50 was 1.75 µM.
Consider `O=C1NC(=O)C2(CCN(C(=O)CCN3CCN(C(=O)/C=C/c4ccc(Cl)c(Cl)c4)CCC3=O)CC2)N1` [Example 89, 8-(3-{4-[(E)-3-(3,4-Dichloro-phenyl)-acryloyl]-7-oxo-[1,4]diazepan-1-yl}-propionyl)-1,3,8-triaza-spiro[4.5]decane-2,4-dione], for which the IC50 is 4 µM.
In the case of `O=C1NCC2(CCN(C(=O)CCN3CCN(C(=O)/C=C/c4ccc(Cl)c(Cl)c4)CCC3=O)CC2)O1` [Example 90, 8-(3-{4-[(E)-3-(3,4-Dichloro-phenyl)-acryloyl]-7-oxo-[1,4]diazepan-1-yl}-propionyl)-1-oxa-3,8-diaza-spiro[4.5]decan-2-one], the IC50 came out at 0.184 µM.
The result for `O=C(/C=C/c1ccc(Cl)c(Cl)c1)N1CCC(=O)N(CCC(=O)N2CCC(c3cc[nH]n3)CC2)CC1` [Example 91, 1-[(E)-3-(3,4-Dichloro-phenyl)-acryloyl]-4-{3-oxo-3-[4-(1H-pyrazol-3-yl)-piperidin-1-yl]-propyl}-[1,4]diazepan-5-one] reads 0.146 µM; that for `O=C(/C=C/c1ccc(Cl)c(Cl)c1)N1CCC(=O)N(CCC(=O)N2CCC(N3CCNC3=O)CC2)CC1` [Example 92, 1-[(E)-3-(3,4-Dichloro-phenyl)-acryloyl]-4-{3-oxo-3-[4-(2-oxo-imidazolidin-1-yl)-piperidin-1-yl]-propyl}-[1,4]diazepan-5-one], 0.952 µM; that for `O=C1CC2(CCN(C(=O)CCN3CCN(C(=O)/C=C/c4ccc(Cl)c(Cl)c4)CCC3=O)CC2)C(=O)N1` [Example 93, 8-(3-{4-[(E)-3-(3,4-Dichloro-phenyl)-acryloyl]-7-oxo-[1,4]diazepan-1-yl}-propionyl)-2,8-diaza-spiro[4.5]decane-1,3-dione], 1.16 µM.
On to `NC(=O)C1CCN(C(=O)CCN2CCN(C(=O)/C=C/c3ccc(Cl)c(Cl)c3)CCC2=O)CC1` [Example 94, 1-(3-{4-[(E)-3-(3,4-Dichloro-phenyl)-acryloyl]-7-oxo-[1,4]diazepan-1-yl}-propionyl)-piperidine-4-carboxylic acid amide], for which the IC50 worked out at 1.8 µM.
Regarding `O=C(/C=C/c1ccc(Cl)c(Cl)c1)N1CCC(=O)N(CC(=O)N2CCCCC2)CC1` [Example 95, 1-[(E)-3-(3,4-Dichloro-phenyl)-acryloyl]-4-(2-oxo-2-piperidin-1-yl-ethyl)-[1,4]diazepan-5-one], the IC50 is 0.15 µM.
As for `O=C(/C=C/c1ccc(Cl)c(Cl)c1)N1CCC(=O)N(CC(=O)N2CCC3(CCCC3)CC2)CC1` [Example 96, 4-[2-(8-Aza-spiro[4.5]dec-8-yl)-2-oxo-ethyl]-1-[(E)-3-(3,4-dichloro-phenyl)-acryloyl]-[1,4]diazepan-5-one], the IC50 worked out at 3.21 µM.
Take `O=C(/C=C/c1ccc(Cl)c(Cl)c1)N1CCC(=O)N(CC(=O)N2CCC3(CCCO3)CC2)CC1` [Example 98, 1-[(E)-3-(3,4-Dichloro-phenyl)-acryloyl]-4-[2-(1-oxa-8-aza-spiro[4.5]dec-8-yl)-2-oxo-ethyl]-[1,4]diazepan-5-one]: the IC50 amounted to 1.7 µM.
Turning to `CC1(CO)CCN(C(=O)CN2CCN(C(=O)/C=C/c3ccc(Cl)c(Cl)c3)CCC2=O)CC1` [Example 99, 1-[(E)-3-(3,4-Dichloro-phenyl)-acryloyl]-4-[2-(4-hydroxymethyl-4-methyl-piperidin-1-yl)-2-oxo-ethyl]-[1,4]diazepan-5-one], the IC50 was 4.96 µM.
In the case of `C[C@@H]1CN(CCC(=O)N2CCCCC2)C(=O)CCN1C(=O)/C=C/c1cccc(Cl)c1` [Example 101, (R)-1-[(E)-3-(3-Chloro-phenyl)-acryloyl]-2-methyl-4-(3-oxo-3-piperidin-1-yl-propyl)-[1,4]diazepan-5-one], the IC50 was 2.48 µM.
Regarding `C[C@@H]1CN(CCC(=O)N2CCC(C)(O)CC2)C(=O)CCN1C(=O)/C=C/c1cccc(Cl)c1` [Example 102, (R)-1-[(E)-3-(3-Chloro-phenyl)-acryloyl]-4-[3-(4-hydroxy-4-methyl-piperidin-1-yl)-3-oxo-propyl]-2-methyl-[1,4]diazepan-5-one], the IC50 came out at 0.152 µM.
As for `C[C@H]1C[C@H](O)CN(C(=O)CCN2C[C@@H](C)N(C(=O)/C=C/c3cccc(Cl)c3)CCC2=O)C1` [Example 103, (R)-1-[(E)-3-(3-Chloro-phenyl)-acryloyl]-4-[3-((3S,5S)-3-hydroxy-5-methyl-piperidin-1-yl)-3-oxo-propyl]-2-methyl-[1,4]diazepan-5-one], the IC50 was 1.29 µM.
For `C[C@@H]1CN(CCC(=O)N2CCC3(CC3)[C@H](O)C2)C(=O)CCN1C(=O)/C=C/c1cccc(Cl)c1` [Example 104, (R)-1-[(E)-3-(3-Chloro-phenyl)-acryloyl]-4-[3-((S)-4-hydroxy-6-aza-spiro[2.5]oct-6-yl)-3-oxo-propyl]-2-methyl-[1,4]diazepan-5-one], the IC50 is 0.1 µM.
For `C[C@H]1C(=O)N(CCCC(=O)N2CCC(C)(O)CC2)CCN1C(=O)Nc1cccc(Cl)c1` [Example 105, (S)-4-[4-(4-Hydroxy-4-methyl-piperidin-1-yl)-4-oxo-butyl]-2-methyl-3-oxo-piperazine-1-carboxylic acid (3-chloro-phenyl)-amide], the IC50 was 3.41 µM.
Turning to `C[C@H]1C(=O)N(CCCC(=O)N2CCC(C(F)(F)F)CC2)CCN1C(=O)Nc1cccc(Cl)c1` [Example 106, (S)-2-Methyl-3-oxo-4-[4-oxo-4-(4-trifluoromethyl-piperidin-1-yl)-butyl]-piperazine-1-carboxylic acid (3-chloro-phenyl)-amide], the IC50 was 3.13 µM.
Take `C[C@H]1C(=O)N(CCCC(=O)N2CCC3(CC2)CNC(=O)O3)CCN1C(=O)Nc1cccc(Cl)c1` [Example 107, (S)-2-Methyl-3-oxo-4-[4-oxo-4-(2-oxo-1-oxa-3,8-diaza-spiro[4.5]dec-8-yl)-butyl]-piperazine-1-carboxylic acid (3-chloro-phenyl)-amide]: the IC50 was found to be 4.87 µM.
With `C[C@H]1C(=O)N(CCCC(=O)N2CCC3(CCCO3)CC2)CCN1C(=O)Nc1cccc(Cl)c1` [Example 108, (S)-2-Methyl-4-[4-(1-oxa-8-aza-spiro[4.5]dec-8-yl)-4-oxo-butyl]-3-oxo-piperazine-1-carboxylic acid (3-chloro-phenyl)-amide] the figure was 4.07 µM; with `C[C@H]1C(=O)N(CCCC(=O)N2CCC(CO)CC2)CCN1C(=O)Nc1cccc(Cl)c1` [Example 109, (S)-4-[4-(4-Hydroxymethyl-piperidin-1-yl)-4-oxo-butyl]-2-methyl-3-oxo-piperazine-1-carboxylic acid (3-chloro-phenyl)-amide], 4.65 µM.
`C[C@H]1C(=O)N(CCCC(=O)N2CCS(=O)(=O)CC2)CCN1C(=O)Nc1cccc(Cl)c1` [Example 110, (S)-4-[4-(1,1-Dioxo-1 lambda*6*-thiomorpholin-4-yl)-4-oxo-butyl]-2-methyl-3-oxo-piperazine-1-carboxylic acid (3-chloro-phenyl)-amide]: the IC50 was 1.34 µM.
Consider `C[C@H]1CCN(C(=O)CCCN2CCN(C(=O)Nc3cccc(Cl)c3)[C@@H](C)C2=O)C[C@H]1O` [Example 111, (S)-4-[4-((3S,4S)-3-Hydroxy-4-methyl-piperidin-1-yl)-4-oxo-butyl]-2-methyl-3-oxo-piperazine-1-carboxylic acid (3-chloro-phenyl)-amide], for which the 50% inhibitory concentration (IC50) came to 0.893 µM.
`C[C@H]1C[C@H](O)CN(C(=O)CCCN2CCN(C(=O)Nc3cccc(Cl)c3)[C@@H](C)C2=O)C1` [Example 113, (S)-4-[4-((3S,5S)-3-Hydroxy-5-methyl-piperidin-1-yl)-4-oxo-butyl]-2-methyl-3-oxo-piperazine-1-carboxylic acid (3-chloro-phenyl)-amide]: the IC50 was found to be 1.42 µM.
Regarding `O=C1CCN(C(=O)Nc2cccc(Cl)c2)CCN1CCCC(=O)N1CCC2(CC2)[C@H](O)C1` [Example 116, 4-[4-((S)-4-Hydroxy-6-aza-spiro[2.5]oct-6-yl)-4-oxo-butyl]-5-oxo-[1,4]diazepane-1-carboxylic acid (3-chloro-phenyl)-amide], the IC50 worked out at 1.29 µM.
Consider `O=C1CCN(C(=O)Nc2ccc(Cl)c(Cl)c2)CCN1CCCC(=O)N1CCC2(CC2)[C@H](O)C1` [Example 117, 4-[4-((S)-4-Hydroxy-6-aza-spiro[2.5]oct-6-yl)-4-oxo-butyl]-5-oxo-[1,4]diazepane-1-carboxylic acid (3,4-dichloro-phenyl)-amide], for which the 50% inhibitory concentration (IC50) worked out at 0.0202 µM.

Values taken from US8445674B2, “Heterocyclyl compounds” (Hoffmann-La Roche Inc, priority 2009, dated 2013).
